From paper PMC12420824, “Discovery of a selective alpha-kinase 1 inhibitor for the rare genetic disease ROSAH syndrome” (Nature Communications, 2025)
Values joined by “and” are separate entries in the source; they are usually repeats but may differ in a detail not shown here. Equal values may be shown once.

Experiments:
[1] = biological target: CAMK2a (Homo sapiens, UniProt Q9UQM7); assay: HotSpot kinase assay; settings: read-out: % Enzyme Activity (relative to DMSO control), 10 uM
[2] = biological target: ERK2/MAPK1 (Homo sapiens, UniProt P28482); assay: HotSpot kinase assay; settings: read-out: % Enzyme Activity (relative to DMSO control), 10 uM
[3] = biological target: EPHA5 (Homo sapiens, UniProt P54756); assay: HotSpot kinase assay; settings: read-out: % Enzyme Activity (relative to DMSO control), 10 uM
Description: (§1) Additionally, a 10-dose dilution series of staurosporine and other enzyme-appropriate compounds were included as positive control inhibitors.

[4] = biological target: MYO3A (Homo sapiens, UniProt Q8NEV4); assay: HotSpot kinase assay; settings: read-out: % Enzyme Activity (relative to DMSO control), 10 uM
Description: as §1

[5] = biological target: EPHB1 (Homo sapiens, UniProt P54762); assay: HotSpot kinase assay; settings: read-out: % Enzyme Activity (relative to DMSO control), 10 uM
Description: as §1

[6] = biological target: P38b/MAPK11 (Homo sapiens, UniProt Q15759); assay: HotSpot kinase assay; settings: read-out: % Enzyme Activity (relative to DMSO control), 10 uM
[7] = biological target: ACK1 (Homo sapiens, UniProt Q07912); assay: HotSpot kinase assay; settings: read-out: % Enzyme Activity (relative to DMSO control), 10 uM
[8] = biological target: TRKB (Homo sapiens, UniProt Q16620); assay: HotSpot kinase assay; settings: read-out: % Enzyme Activity (relative to DMSO control), 10 uM
[9] = biological target: TXK (Homo sapiens, UniProt P42681); assay: HotSpot kinase assay; settings: read-out: % Enzyme Activity (relative to DMSO control), 10 uM
Description: as §1

[10] = biological target: FGFR1 (Homo sapiens, UniProt P11362); assay: HotSpot kinase assay; settings: read-out: % Enzyme Activity (relative to DMSO control), 10 uM
Description: as §1

[11] = biological target: CK1G3 (Homo sapiens, UniProt Q9Y6M4); assay: HotSpot kinase assay; settings: read-out: % Enzyme Activity (relative to DMSO control), 10 uM
Chain of CK1G3 (Q9Y6M4 whole entry): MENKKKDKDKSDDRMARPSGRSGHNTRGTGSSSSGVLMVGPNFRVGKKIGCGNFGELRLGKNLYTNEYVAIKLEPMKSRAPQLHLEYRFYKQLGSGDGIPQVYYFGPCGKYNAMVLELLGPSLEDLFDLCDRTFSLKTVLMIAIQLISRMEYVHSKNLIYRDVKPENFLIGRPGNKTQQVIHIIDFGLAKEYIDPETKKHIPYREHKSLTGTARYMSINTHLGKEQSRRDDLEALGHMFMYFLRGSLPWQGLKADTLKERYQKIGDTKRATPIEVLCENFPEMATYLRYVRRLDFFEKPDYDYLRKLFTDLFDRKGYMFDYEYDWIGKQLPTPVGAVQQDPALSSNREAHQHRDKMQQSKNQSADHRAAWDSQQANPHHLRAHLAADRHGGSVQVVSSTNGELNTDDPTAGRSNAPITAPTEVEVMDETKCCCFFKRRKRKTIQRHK
Description: as §1

[12] = biological target: PKCnu/PRKD3 (Homo sapiens, UniProt O94806); assay: HotSpot kinase assay; settings: read-out: % Enzyme Activity (relative to DMSO control), 10 uM
Description: as §1

[13] = biological target: FLT1/VEGFR1 (Homo sapiens, UniProt P17948); assay: HotSpot kinase assay; settings: read-out: % Enzyme Activity (relative to DMSO control), 10 uM
Description: as §1

[14] = biological target: ERK7/MAPK15 (Homo sapiens, UniProt Q8TD08); assay: HotSpot kinase assay; settings: read-out: % Enzyme Activity (relative to DMSO control), 10 uM
Chain of ERK7/MAPK15 (Q8TD08 whole entry): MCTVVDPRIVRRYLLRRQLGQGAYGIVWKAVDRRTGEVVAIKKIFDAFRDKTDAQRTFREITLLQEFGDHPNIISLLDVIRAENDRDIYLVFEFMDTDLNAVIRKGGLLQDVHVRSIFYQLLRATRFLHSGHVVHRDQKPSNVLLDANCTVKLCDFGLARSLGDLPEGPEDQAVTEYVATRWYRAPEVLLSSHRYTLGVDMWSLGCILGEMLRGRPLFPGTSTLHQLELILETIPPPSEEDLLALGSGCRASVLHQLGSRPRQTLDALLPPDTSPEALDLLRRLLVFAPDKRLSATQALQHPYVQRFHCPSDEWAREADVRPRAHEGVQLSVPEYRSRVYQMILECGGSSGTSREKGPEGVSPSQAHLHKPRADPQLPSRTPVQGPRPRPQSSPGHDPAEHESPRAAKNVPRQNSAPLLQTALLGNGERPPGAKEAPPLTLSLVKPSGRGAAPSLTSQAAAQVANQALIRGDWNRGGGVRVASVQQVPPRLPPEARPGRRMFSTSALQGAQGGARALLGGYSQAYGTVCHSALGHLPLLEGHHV
Description: as §1

[15] = biological target: MARK1 (Homo sapiens, UniProt Q9P0L2); assay: HotSpot kinase assay; settings: read-out: % Enzyme Activity (relative to DMSO control), 10 uM
[16] = biological target: LATS2 (Homo sapiens, UniProt Q9NRM7); assay: HotSpot kinase assay; settings: read-out: % Enzyme Activity (relative to DMSO control), 10 uM
Description: as §1

[17] = biological target: FGFR3 (Homo sapiens, UniProt P22607); assay: HotSpot kinase assay; settings: read-out: % Enzyme Activity (relative to DMSO control), 10 uM
Description: as §1

[18] = biological target: ALK2/ACVR1 (Homo sapiens, UniProt Q04771); assay: HotSpot kinase assay; settings: read-out: % Enzyme Activity (relative to DMSO control), 10 uM
Chain of ALK2/ACVR1 (Q04771 21-509): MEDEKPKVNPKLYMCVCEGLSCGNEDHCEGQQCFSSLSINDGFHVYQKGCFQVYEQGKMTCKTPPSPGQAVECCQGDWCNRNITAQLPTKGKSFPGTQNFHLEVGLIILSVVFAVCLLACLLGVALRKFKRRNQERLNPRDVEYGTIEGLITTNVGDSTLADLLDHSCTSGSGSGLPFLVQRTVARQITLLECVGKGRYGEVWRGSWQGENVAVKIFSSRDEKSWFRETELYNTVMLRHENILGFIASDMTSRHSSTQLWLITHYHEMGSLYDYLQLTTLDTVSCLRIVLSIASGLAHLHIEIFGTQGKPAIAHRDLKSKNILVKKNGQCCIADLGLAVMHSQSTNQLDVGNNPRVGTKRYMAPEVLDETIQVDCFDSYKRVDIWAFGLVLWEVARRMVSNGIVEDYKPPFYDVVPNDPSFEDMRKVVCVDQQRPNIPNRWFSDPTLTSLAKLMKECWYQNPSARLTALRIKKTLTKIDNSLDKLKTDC

[19] = biological target: TNIK (Homo sapiens, UniProt Q9UKE5); assay: HotSpot kinase assay; settings: read-out: % Enzyme Activity (relative to DMSO control), 10 uM
[20] = biological target: NEK6 (Homo sapiens, UniProt Q9HC98); assay: HotSpot kinase assay; settings: read-out: % Enzyme Activity (relative to DMSO control), 10 uM
Chain of NEK6 (Q9HC98 whole entry): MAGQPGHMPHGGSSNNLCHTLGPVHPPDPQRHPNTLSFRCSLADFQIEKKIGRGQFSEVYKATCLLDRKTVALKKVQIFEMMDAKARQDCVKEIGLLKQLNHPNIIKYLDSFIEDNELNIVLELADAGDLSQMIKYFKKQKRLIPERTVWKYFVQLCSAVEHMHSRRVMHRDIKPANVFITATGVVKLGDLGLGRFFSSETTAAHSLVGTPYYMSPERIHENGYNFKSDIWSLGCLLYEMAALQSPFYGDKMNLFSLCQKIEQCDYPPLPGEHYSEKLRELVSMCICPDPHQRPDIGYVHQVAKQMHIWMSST
Description: as §1

[21] = biological target: PLK3 (Homo sapiens, UniProt Q9H4B4); assay: HotSpot kinase assay; settings: read-out: % Enzyme Activity (relative to DMSO control), 10 uM
Chain of PLK3 (Q9H4B4 whole entry): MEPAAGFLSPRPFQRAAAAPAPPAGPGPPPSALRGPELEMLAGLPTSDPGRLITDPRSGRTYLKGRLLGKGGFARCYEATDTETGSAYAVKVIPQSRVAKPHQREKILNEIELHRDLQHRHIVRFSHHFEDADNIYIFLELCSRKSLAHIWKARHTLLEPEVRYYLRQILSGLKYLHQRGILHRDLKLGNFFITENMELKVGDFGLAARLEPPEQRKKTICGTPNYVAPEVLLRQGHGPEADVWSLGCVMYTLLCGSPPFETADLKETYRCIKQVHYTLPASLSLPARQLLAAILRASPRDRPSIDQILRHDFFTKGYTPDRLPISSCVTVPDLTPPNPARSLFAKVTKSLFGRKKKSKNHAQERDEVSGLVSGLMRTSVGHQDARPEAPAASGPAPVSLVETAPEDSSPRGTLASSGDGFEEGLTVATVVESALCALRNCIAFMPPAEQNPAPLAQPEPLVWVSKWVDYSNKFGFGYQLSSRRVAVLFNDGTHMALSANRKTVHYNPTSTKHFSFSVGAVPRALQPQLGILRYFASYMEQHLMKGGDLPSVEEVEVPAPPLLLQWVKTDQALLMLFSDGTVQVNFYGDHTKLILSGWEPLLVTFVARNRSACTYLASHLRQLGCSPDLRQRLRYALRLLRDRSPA

[22] = system: NF-κB reporter HEK-293 cells overexpressing ALPK1; assay: NF-κB luciferase reporter
[23] = biological target: CLK4 (Homo sapiens, UniProt Q9HAZ1); assay: HotSpot kinase assay; settings: read-out: % Enzyme Activity (relative to DMSO control), 10 uM
Description: as §1

[24] = biological target: CDK9/cyclin T1 (Homo sapiens, UniProt P50750); assay: HotSpot kinase assay; settings: read-out: % Enzyme Activity (relative to DMSO control), 10 uM
[25] = biological target: Aurora B (Homo sapiens, UniProt Q96GD4); assay: HotSpot kinase assay; settings: read-out: % Enzyme Activity (relative to DMSO control), 10 uM
Chain of Aurora B (Q96GD4 whole entry): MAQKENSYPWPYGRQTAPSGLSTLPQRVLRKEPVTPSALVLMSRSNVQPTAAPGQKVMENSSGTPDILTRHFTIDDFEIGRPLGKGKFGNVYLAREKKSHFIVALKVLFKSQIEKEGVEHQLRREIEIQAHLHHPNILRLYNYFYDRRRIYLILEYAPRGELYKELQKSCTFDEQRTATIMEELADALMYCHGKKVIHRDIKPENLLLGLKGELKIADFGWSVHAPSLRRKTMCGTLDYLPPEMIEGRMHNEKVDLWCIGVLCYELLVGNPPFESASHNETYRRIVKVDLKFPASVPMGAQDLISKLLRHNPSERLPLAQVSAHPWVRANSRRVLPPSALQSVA
Description: as §1

[26] = biological target: GSK3a (Homo sapiens, UniProt P49840); assay: HotSpot kinase assay; settings: read-out: % Enzyme Activity (relative to DMSO control), 10 uM
Chain of GSK3a (P49840 whole entry): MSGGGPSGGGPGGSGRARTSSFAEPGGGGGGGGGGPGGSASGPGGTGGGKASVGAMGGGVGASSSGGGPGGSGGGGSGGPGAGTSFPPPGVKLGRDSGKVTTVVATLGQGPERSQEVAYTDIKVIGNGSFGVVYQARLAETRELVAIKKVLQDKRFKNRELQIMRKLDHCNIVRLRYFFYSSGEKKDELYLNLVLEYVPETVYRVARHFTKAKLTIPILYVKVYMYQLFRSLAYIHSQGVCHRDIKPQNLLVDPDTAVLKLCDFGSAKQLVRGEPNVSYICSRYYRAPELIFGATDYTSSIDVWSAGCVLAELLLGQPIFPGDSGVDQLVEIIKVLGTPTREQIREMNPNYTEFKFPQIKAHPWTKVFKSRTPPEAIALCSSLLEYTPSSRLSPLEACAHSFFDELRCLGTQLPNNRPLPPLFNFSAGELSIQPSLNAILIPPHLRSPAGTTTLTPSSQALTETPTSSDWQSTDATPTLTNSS

[27] = biological target: VRK1 (Homo sapiens, UniProt Q99986); assay: HotSpot kinase assay; settings: read-out: % Enzyme Activity (relative to DMSO control), 10 uM
Description: as §1

[28] = biological target: MAK (Homo sapiens, UniProt P20794); assay: HotSpot kinase assay; settings: read-out: % Enzyme Activity (relative to DMSO control), 10 uM
Description: as §1

[29] = biological target: BMX/ETK (Homo sapiens, UniProt P51813); assay: HotSpot kinase assay; settings: read-out: % Enzyme Activity (relative to DMSO control), 10 uM
Chain of BMX/ETK (P51813 whole entry): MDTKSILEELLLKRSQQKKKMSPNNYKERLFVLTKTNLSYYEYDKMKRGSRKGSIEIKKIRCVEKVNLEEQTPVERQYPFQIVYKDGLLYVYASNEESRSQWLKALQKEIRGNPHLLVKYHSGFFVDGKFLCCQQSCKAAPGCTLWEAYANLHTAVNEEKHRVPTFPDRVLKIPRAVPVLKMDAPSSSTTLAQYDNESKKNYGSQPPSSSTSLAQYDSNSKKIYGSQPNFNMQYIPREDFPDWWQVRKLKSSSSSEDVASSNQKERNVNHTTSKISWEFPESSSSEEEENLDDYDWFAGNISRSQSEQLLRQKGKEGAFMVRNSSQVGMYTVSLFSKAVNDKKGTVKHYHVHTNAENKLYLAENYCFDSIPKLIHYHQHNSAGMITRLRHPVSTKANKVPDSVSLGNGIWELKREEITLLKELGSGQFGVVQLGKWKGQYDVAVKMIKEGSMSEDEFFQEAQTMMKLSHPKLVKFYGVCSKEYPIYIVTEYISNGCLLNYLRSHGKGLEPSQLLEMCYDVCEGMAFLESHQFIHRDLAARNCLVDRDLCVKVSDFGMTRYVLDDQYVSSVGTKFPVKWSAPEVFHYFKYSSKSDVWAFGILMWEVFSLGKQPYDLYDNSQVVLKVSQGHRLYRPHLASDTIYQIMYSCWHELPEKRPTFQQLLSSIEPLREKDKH

[30] = biological target: AMPK (A2/B1/G3) (Homo sapiens, UniProt P54646); assay: HotSpot kinase assay; settings: read-out: % Enzyme Activity (relative to DMSO control), 10 uM
Description: as §1

[31] = biological target: ERBB4/HER4 (Homo sapiens, UniProt Q15303); assay: HotSpot kinase assay; settings: read-out: % Enzyme Activity (relative to DMSO control), 10 uM
Description: as §1

[32] = biological target: MEK1 (Homo sapiens, UniProt Q02750); assay: HotSpot kinase assay; settings: read-out: % Enzyme Activity (relative to DMSO control), 10 uM
Description: as §1

[33] = biological target: ULK3 (Homo sapiens, UniProt Q6PHR2); assay: HotSpot kinase assay; settings: read-out: % Enzyme Activity (relative to DMSO control), 10 uM
Chain of ULK3 (Q6PHR2 whole entry): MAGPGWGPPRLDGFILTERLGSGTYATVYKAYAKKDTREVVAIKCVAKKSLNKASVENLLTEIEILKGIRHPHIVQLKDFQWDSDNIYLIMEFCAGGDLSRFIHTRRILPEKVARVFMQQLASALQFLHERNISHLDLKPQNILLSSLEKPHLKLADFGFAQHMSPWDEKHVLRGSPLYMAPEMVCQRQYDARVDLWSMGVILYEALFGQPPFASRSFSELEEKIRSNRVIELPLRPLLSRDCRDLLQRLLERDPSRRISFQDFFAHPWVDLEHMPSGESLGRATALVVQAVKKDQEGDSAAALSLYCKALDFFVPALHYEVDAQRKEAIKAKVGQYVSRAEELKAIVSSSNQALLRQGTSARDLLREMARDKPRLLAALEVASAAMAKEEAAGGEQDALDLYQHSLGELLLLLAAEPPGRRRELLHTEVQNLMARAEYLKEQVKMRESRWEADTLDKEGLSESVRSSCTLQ

[34] = biological target: SIK3 (Homo sapiens, UniProt Q9Y2K2); assay: HotSpot kinase assay; settings: read-out: % Enzyme Activity (relative to DMSO control), 10 uM
Description: as §1

[35] = biological target: DYRK1/DYRK1A (Homo sapiens, UniProt Q13627); assay: HotSpot kinase assay; settings: read-out: % Enzyme Activity (relative to DMSO control), 10 uM
[36] = biological target: AKT3 (Homo sapiens, UniProt Q9Y243); assay: HotSpot kinase assay; settings: read-out: % Enzyme Activity (relative to DMSO control), 10 uM
Chain of AKT3 (Q9Y243 whole entry): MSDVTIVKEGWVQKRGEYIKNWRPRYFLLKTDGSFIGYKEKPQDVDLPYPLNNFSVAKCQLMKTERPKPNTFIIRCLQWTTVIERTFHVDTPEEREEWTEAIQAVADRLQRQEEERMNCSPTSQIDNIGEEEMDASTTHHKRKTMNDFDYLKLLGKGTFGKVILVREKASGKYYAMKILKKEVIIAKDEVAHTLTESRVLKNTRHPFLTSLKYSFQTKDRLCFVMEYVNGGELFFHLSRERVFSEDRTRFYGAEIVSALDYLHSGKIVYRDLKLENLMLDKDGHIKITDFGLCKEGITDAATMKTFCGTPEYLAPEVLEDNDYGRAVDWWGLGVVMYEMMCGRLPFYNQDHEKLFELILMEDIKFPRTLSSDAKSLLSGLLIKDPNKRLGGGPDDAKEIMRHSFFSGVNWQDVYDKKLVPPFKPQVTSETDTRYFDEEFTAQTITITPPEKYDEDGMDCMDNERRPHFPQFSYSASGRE

[37] = biological target: CAMK1g (Homo sapiens, UniProt Q96NX5); assay: HotSpot kinase assay; settings: read-out: % Enzyme Activity (relative to DMSO control), 10 uM
Description: as §1

[38] = biological target: PKCb2 (Homo sapiens, UniProt P05771); assay: HotSpot kinase assay; settings: read-out: % Enzyme Activity (relative to DMSO control), 10 uM
Description: as §1

SMILES: C#C[C@@](C)(c1ccc(Cl)cc1)c1csc(NC(=O)c2c(F)cc(N3CCNCC3)cc2F)n1 (stereo in doubt) [DF-003]
- remaining activity at 10 µM [1]: 9.74%
- remaining activity at 10 µM [2]: 91.9%
- remaining activity at 10 µM [3]: 95.5%
- remaining activity at 10 µM [4]: 75.5%
- remaining activity at 10 µM [5]: 80.8%
- remaining activity at 10 µM [6]: 95.4%
- remaining activity at 10 µM [7]: 114%
- remaining activity at 10 µM [8]: 74.4%
- remaining activity at 10 µM [9]: 73.7%
- remaining activity at 10 µM [10]: 68.8%
- remaining activity at 10 µM [11]: 92.5%
- remaining activity at 10 µM [12]: 53.2%
- remaining activity at 10 µM [13]: 79.2%
- remaining activity at 10 µM [14]: 83.5%
- remaining activity at 10 µM [15]: 104%
- remaining activity at 10 µM [16]: 45.3%
- remaining activity at 10 µM [17]: 136%
- remaining activity at 10 µM [18]: 92.7%
- remaining activity at 10 µM [19]: 75.5%
- remaining activity at 10 µM [20]: 88.5%
- remaining activity at 10 µM [21]: 102%
- Luciferase signal ([22]; OE ALPK1, DF-003 3.174 nM): 1.097 and 1.020 and 1.022
- Luciferase signal ([22]; OE ALPK1, DF-003 10.029 nM): 0.986 and 1.052 and 0.781
- Luciferase signal ([22]; OE ALPK1, DF-003 31.691 nM): 1.122 and 1.009 and 1.070
- Luciferase signal ([22]; OE ALPK1, DF-003 100.144 nM): 1.037 and 1.150 and 1.192
- Luciferase signal ([22]; OE ALPK1, DF-003 316.456 nM): 1.532 and 0.863 and 1.106
- Luciferase signal ([22]; OE ALPK1, DF-003 1000.000 nM): 1.282 and 1.245 and 1.248
- Luciferase signal ([22]; OE ALPK1, DF-003 3160.000 nM): 0.913 and 0.816 and 0.878
- Luciferase signal ([22]; OE ALPK1, DF-003 10000.000 nM): 1.096 and 0.857 and 1.177
- remaining activity at 10 µM [23]: 128%
- remaining activity at 10 µM [24]: 116%
- remaining activity at 10 µM [25]: 76.5%
- remaining activity at 10 µM [26]: 195%
- remaining activity at 10 µM [27]: 117%
- remaining activity at 10 µM [28]: 100%
- remaining activity at 10 µM [29]: 87.5%
- remaining activity at 10 µM [30]: 87.3%
- remaining activity at 10 µM [31]: 121%
- remaining activity at 10 µM [32]: 102%
- remaining activity at 10 µM [33]: 114%
- remaining activity at 10 µM [34]: 79.6%
- remaining activity at 10 µM [35]: 98.5%
- remaining activity at 10 µM [36]: 83.1%
- remaining activity at 10 µM [37]: 56.6%
- remaining activity at 10 µM [38]: 85.2%
